The test system of the assay is membrane-anchor (M) (SNAP-tag). The experiment in a line: Labeling of the membrane-anchor (M) at the cell surface: block of BG-Alexa647 binding, imaging and flow cytometry. The class given is cell-based. Conditions: 1 µM for 1 hour, then 1.5 µM BG-Alexa647 for 30 minutes. As to the method: Untransfected or membrane-anchor (M) expressing HEK293T cells were labeled with 1.5 µM BG-TMR or BG-Alexa647 (NEB) for 20-30 minutes in the dark at 37° C. and 5% CO2 in a standard extracellular solution. Cells were then (i) mounted on an upright, scanning confocal microscope (Zeiss LSM 780) and imaged with a 20x objective or (ii) washed in DPBS and measured by flow cytometry (BD LSR II).
FIGS. 8A-8D. Photophysical properties of P-D1ago. (A) Absorbance spectra of P-D1ago under blue light (460 nm; blue) and UV light (370 nm; grey). (B) P-D1ago repeatedly switches from its trans to cis isomer with UV light and back to trans with blue light. […] Cells were incubated for 1 hour with vehicle (left upper panels), 1 µM surface block (left middle panels), or 1 µM P-D1ago (left lower panels), and were then labeled for 30 minutes with 1.5 µM BG-Alexa647. Cytosolic tdTomato was used as a transfection marker, grey bar = […]. A summary of labeling according to flow cytometry is shown on the right. unpaired two-sided t-test, p = 0.60. n = 3-6 replicates per condition. (D) M labeling as a function of the concentration of P-D1ago. The M was incubated for 1 hour with increasing concentrations of P-D1ago, and then labeled for 30 minutes with 1.5 µM BG-Alexa647. Labeling was measured by flow cytometry. […] Labeling was measured by flow cytometry. n = 3-4 replicates per condition. […]
A general note: A flow cytometer gives signals particle by particle.

The structures appear in SMILES notation.

In the case of `CCCN(CCc1ccc(N=Nc2ccc(NC(=O)CNC(=O)CCOCCOCCOCCOCCOCCOCCOCCOCCOCCOCCOCCOCCn3cc(CCC(=O)NCc4ccc(COc5nc(N)nc6nc[nH]c56)cc4)nn3)cc2)cc1)C1CCc2c(O)cccc2C1` (centres unmarked) [P-D1ago, Benzylguanine-azobenzene-PPHT], the “binding to the M at the cell surface (block of BG-Alexa647 binding)” value is reported as “almost completely”. For the same compound, the “binding to the M at the cell surface (block of BG-Alexa647 binding)” value (listed as P-Dlago) is recorded as “binds efficiently”.

For the origin of these results see patent publication US20230173090A1, “COMPOSITIONS AND METHODS FOR MODULATING DOPAMINE RECEPTOR ACTIVITY” (The Regents of the University of California, priority 2020, published 2023).
